# “And” between values parts separate entries of the source, which are not always exact repeats. Equal entries are not always repeated.
# System: CCRF-CEM cells
# Assay: intracellular ROS, ROS-red staining and flow cytometry, CCRF-CEM
# Type: cell-based, human
# Design: ROS Negative Cells: unit not given here
# Settings: for ROS Negative Cells / ROS Positive Cells: listed as AVX420
# Description: Data are the mean ± stdev of 3 biological replicates. […] Data are the mean ± stdev of 3 biological replicates.
# Rather, when combined with AVX420, exogenous AA augmented cell death (Fig. 6e). […] The response occurred within 1 h, peaked at 8–12 h, and preceded the loss of cell viability (Fig. S9a, b).
# After treatment, cells were stained with cellular ROS Assay Kit (Cat. No. ab186029; Abcam, Cambridge, United Kingdom) following the manufacturer’s instructions, and ROS-positive cells were quantified by flow cytometry using either the NovoCyte flow cytometer, and Novoexpress Software v1.5.0 from Agilent Technologies (Santa Clara, USA) or the CytoFLEX flow cytometer and CytExpert analysis software v 2.5 from Beckman Coulter (California, United States). An example showing the gating strategy used to assess ROS-Red staining is found in Fig. S9d.
# Figure S9. Intracellular ROS accumulation and cell death. a. Time dependency of the in-crease in iROS following treatment with AVX420 in CCRF-CEM cells as measured by ROS-red stain-ing. Data are the mean ±stdev from ≥2 biological replicates b. […]
# ±stdev of ≥2 biological replicates c. intracellular ROS measurements in CCRF-CEM cells treated with 0.5 µM AVX420 in the presence of 20 µM arachidonic acid (AA) or 5 µM liproxstatin (Lip) for 4 hours. Data are the mean ± stdev of 2 biological replicates. d. […]
# analysis of ROS Red staining by flow cytometry. (i) Gating of live cells using FSC-H versus SSC-H.
# (ii) Gating based on ROS Deep Red staining under control conditions and after treatment with (iii) […]
# (1 picture or pasted object on this page, not shown here)
smiles,measurement,setting,value
CCCCCCCOc1ccc(OCC(=O)c2nc(C(=O)OC)cs2)cc1 [GK420],time of iROS peak,CCRF-CEM (Fig. S9a),8 to 12 h
same,time to iROS response,CCRF-CEM (Fig. S9a),≤ 1 h
same,ROS Negative Cells,"CCRF-CEM, 0.25 µM",70 and 65 and 71 and 61
same,ROS Positive Cells,"CCRF-CEM, 0.25 µM",39 and 30 and 35 and 29
same,ROS Negative Cells,"CCRF-CEM, 0.5 µM",34 and 29 and 30 and 32 and 33
same,ROS Positive Cells,"CCRF-CEM, 0.5 µM",70 and 68 and 67 and 66 and 71
same,ROS Negative Cells,"CCRF-CEM, 1 µM",13 and 15 and 12 and 11
same,ROS Positive Cells,"CCRF-CEM, 1 µM",89 and 87 and 85 and 88
same,ROS Negative Cells,"CCRF-CEM, 2 µM",8 and 6 and 9 and 10
same,ROS Positive Cells,"CCRF-CEM, 2 µM",90 and 92 and 94 and 91
same,intracellular ROS (iROS),"CCRF-CEM, 4 h",dose-dependent increase
